Experimental data reported in paper PMC3773436 (Evidence-based Complementary and Alternative Medicine : eCAM, 2013).
“Also recorded” adds a separate entry of the source. Read-outs that look alike come from different tables or passages of the source.

What was measured:
Porcine kidney DPP-IV [1] = molecular target: T1, Porcine kidney DPP-IV (Sus scrofa, UniProt P22411); assay: DPP-IV Glo Protease Assay (luminescence), DPP-IV inhibition; assay type: biochemical; settings: for DPP-IV inhibitory activity (in words): tested at 0.5, 5, 20 and 40 μg/mL, data not shown
T1 construct: purchased Sigma-Aldrich; host or cells: porcine kidney (tissue-derived, as named)
Source text: All solvents used for phenolic extraction were HPLC-grade and were purchased from Fisher Scientific (Pittsburg, PA). Amberlite XAD-7 was purchased from Sigma-Aldrich (St. Louis, MO). Sephadex LH-20 was purchased from GE Life Sciences (Buckinghamshire, UK). […] DPP-IV Glo^TM Protease Assay kits were purchased from Promega (Madison, WI). […] All other reagents were of analytical grade.
Measurement of the activity and potential inhibition of DPP-IV, a type II membrane glycoprotein, was done using the DPP-IV Glo^TM Protease Assay following the manufacture's protocol (Promega, Madison, WI). Briefly, 50 μL of DPP-IV Glo^TM reagent was added to a white-walled 96-well plate containing 50 μL of blank, positive control, or treatment. The blank contained the vehicle only while positive control contained the vehicle and purified DPP-IV enzyme (at a final concentration of 1 ng/mL). […] The content of the wells was gently mixed using an Ultra Microplate Reader (Biotek Instruments, Winooski, VT) at medium intensity for 4 s. DPP-IV cleavage of the provided Gly-Pro-amino methyl coumarin (AMC) substrate generated a luminescent signal by luciferase reaction, with the amount of DPP-IV enzyme available to bind Gly-Pro-AMC proportional to relative light units (RLU) produced. This signal in RLU was measured after 30 min in the Ultra Microplate Reader and then compared to the blank. […] IC50 values were calculated based on the molecular mass of each compound or C3G as the equivalent for ANC-enriched fractions.
Data were expressed as means of independent duplicates with at least three replicates. […] Statistical analysis was conducted using the proc GLM procedures of SAS version 9.3 (SAS Inst. Inc., Cary, NC, 2009). Group mean comparisons were conducted using Duncan means and were considered to be significant at P < 0.05 based on the least significant differences (LSD) from one-way analysis of variance (ANOVA) with alpha = 0.05. Correlations were made using Pearson's correlation values with P < 0.05.

Porcine kidney DPP-IV [2] = molecular target: T1, Porcine kidney DPP-IV; assay: Inhibitory kinetics study, Lineweaver-Burk plot, Gly-Pro-AMC substrate; assay type: biochemical; settings: for Ki: Gly-Pro-AMC 0–60 μM, read-out: K i (enzyme-inhibition constant, experimental)
Protocol: Each concentration was evaluated in the presence of various concentrations of Gly-Pro-AMC (0–60 μM). DPP-IV activity was measured using the DPP-IV Glo Protease Assay as mentioned above. The inhibition pattern was evaluated utilizing the Lineweaver-Burk plot. Enzyme-inhibition constant K i was determined by plotting the reciprocal of the initial luminescence versus the reciprocal of the initial substrate concentration.
Initial rates of the reaction were measured, and the results are expressed as a Lineweaver-Burk plot. Data are expressed as the mean of four independent experiments.

[3] = pure compounds, concentration based on molecular mass, means ± SEM, read-out: IC50, DPP-IV inhibition

T1 sequence (P22411 whole entry): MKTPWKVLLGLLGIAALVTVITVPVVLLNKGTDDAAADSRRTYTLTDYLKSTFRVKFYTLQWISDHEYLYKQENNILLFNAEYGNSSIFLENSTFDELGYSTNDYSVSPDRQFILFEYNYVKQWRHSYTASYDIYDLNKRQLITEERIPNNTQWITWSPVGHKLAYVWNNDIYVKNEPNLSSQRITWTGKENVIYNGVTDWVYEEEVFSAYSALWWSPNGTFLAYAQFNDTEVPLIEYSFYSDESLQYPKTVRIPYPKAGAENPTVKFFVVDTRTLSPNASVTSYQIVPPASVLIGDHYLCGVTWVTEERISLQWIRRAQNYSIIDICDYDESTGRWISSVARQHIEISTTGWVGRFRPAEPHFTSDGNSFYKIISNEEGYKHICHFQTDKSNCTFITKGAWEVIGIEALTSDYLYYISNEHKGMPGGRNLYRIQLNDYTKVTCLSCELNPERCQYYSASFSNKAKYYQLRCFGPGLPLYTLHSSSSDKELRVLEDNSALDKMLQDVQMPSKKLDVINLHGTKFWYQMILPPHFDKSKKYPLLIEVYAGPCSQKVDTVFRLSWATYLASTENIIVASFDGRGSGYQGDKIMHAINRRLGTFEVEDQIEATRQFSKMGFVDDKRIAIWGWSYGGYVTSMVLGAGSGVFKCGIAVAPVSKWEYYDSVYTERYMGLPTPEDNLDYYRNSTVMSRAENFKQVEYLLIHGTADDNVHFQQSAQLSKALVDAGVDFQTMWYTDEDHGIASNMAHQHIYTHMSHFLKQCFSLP

IC50 (Porcine kidney DPP-IV [1]; [3]) | SMILES | DPP-IV inhibitory activity (in words) (Porcine kidney DPP-IV [1]) | further results
0.14 ± 0.02 µM | O=c1cc(-c2ccc(O)cc2)oc2cc(O)cc(O)c12 [Apigenin, apigenin] | – | Inhibition manner (Porcine kidney DPP-IV [2]): noncompetitively; also recorded: noncompetitive; Ki (Porcine kidney DPP-IV [2]): 7.9 ± 1.4 µM
3.37 ± 0.14 µM | O=C(O)/C=C/c1ccc(O)c(O)c1 [Caffeic acid, caffeic acid] | – | –
1.41 ± 0.25 µM | Oc1cc(O)c2cc(O)c(-c3ccc(O)c(O)c3)[o+]c2c1 [Cyanidin, cyanidin] | – | –
0.42 ± 0.09 µM | OC[C@H]1O[C@@H](Oc2cc3c(O)cc(O)cc3[o+]c2-c2ccc(O)c(O)c2)[C@H](O)[C@@H](O)[C@@H]1O [Cyanidin-3-glucoside, cyanidin-3-glucoside] | – | –
10.36 ± 0.09 µM | C[C@@H]1O[C@@H](OC[C@H]2O[C@@H](Oc3cc(O)c4c(c3)O[C@H](c3ccc(O)c(O)c3)CC4=O)[C@H](O)[C@@H](O)[C@@H]2O)[C@H](O)[C@H](O)[C@H]1O [Eriocitrin, eriocitrin] | – | –
0.17 ± 0.01 µM | O=c1cc(-c2ccccc2)oc2ccccc12 [Flavone, flavone] | – | Inhibition manner (Porcine kidney DPP-IV [2]): competitive; Ki (Porcine kidney DPP-IV [2]): 18.6 ± 0.3 µM
0.48 ± 0.04 µM | O=c1c(-c2ccc(O)cc2)coc2cc(O)cc(O)c12 [Genistein, genistein] | – | –
0.28 ± 0.07 µM | COc1ccc([C@@H]2CC(=O)c3c(O)cc(O)cc3O2)cc1O [Hesperetin, hesperetin] | – | –
0.49 ± 0.02 µM | O=c1c(O)c(-c2ccc(O)cc2)oc2cc(O)cc(O)c12 [Kaempferol, kaempferol] | – | –
0.12 ± 0.01 µM | O=c1cc(-c2ccc(O)c(O)c2)oc2cc(O)cc(O)c12 [Luteolin, luteolin] | – | Inhibition manner (Porcine kidney DPP-IV [2]): noncompetitively; also recorded: noncompetitive; Ki (Porcine kidney DPP-IV [2]): 4.9 ± 0.2 µM
– | COc1cc(-c2[o+]c3cc(O)cc(O)c3cc2O)cc(OC)c1O [Malvidin, malvidin] | – | IC50 (Porcine kidney DPP-IV [1]): 0.74 ± 0.16 µM
0.24 ± 0.03 µM | O=C1C[C@@H](c2ccc(O)cc2)Oc2cc(O)cc(O)c21 [Naringenin, naringenin] | – | –
2.92 ± 0.68 µM | O=c1c(O)c(-c2ccc(O)c(O)c2)oc2cc(O)cc(O)c12 [Quercetin, quercetin] | – | –
0.0006 ± 0.0004 µM | Oc1ccc(/C=C/c2cc(O)cc(O)c2)cc1 [Resveratrol, resveratrol] | – | Inhibition manner (Porcine kidney DPP-IV [2]): competitive; Ki (Porcine kidney DPP-IV [2]): 0.2 ± 0.01 µM
– | O.Oc1cc(O)c2c(c1)O[C@H](c1ccc(O)c(O)c1)[C@@H](O)C2 [catechin] | did not have DPP-IV inhibitory activity | –
– | O=C(/C=C/c1ccc(O)c(O)c1)O[C@@H]1C[C@](O)(C(=O)O)C[C@@H](O)[C@H]1O [chlorogenic acid] | did not have DPP-IV inhibitory activity | –
– | Oc1cc(O)c2c(c1)O[C@H](c1ccc(O)c(O)c1)[C@H](O)C2 [epicatechin] | did not have DPP-IV inhibitory activity | –
– | O=c1c(-c2ccc(O)cc2)coc2cc(O[C@@H]3O[C@H](CO)[C@@H](O)[C@H](O)[C@H]3O)cc(O)c12 [genistin] | did not have DPP-IV inhibitory activity | –
– | COc1ccc([C@@H]2CC(=O)c3c(O)cc(O[C@@H]4O[C@H](CO[C@@H]5O[C@@H](C)[C@H](O)[C@@H](O)[C@H]5O)[C@@H](O)[C@H](O)[C@H]4O)cc3O2)cc1O [hesperidin] | did not have DPP-IV inhibitory activity; also recorded: no DPP-IV inhibitory effect | –
– | CC1(C)O[C@H]2CC(=O)OC[C@]23[C@H]2CC[C@@]4(C)[C@H](c5ccoc5)OC(=O)[C@H]5O[C@]54[C@]2(C)C(=O)C[C@@H]13 [limonin] | did not have DPP-IV inhibitory activity | –
– | C[C@@H]1O[C@@H](O[C@H]2[C@H](Oc3cc(O)c4c(c3)O[C@H](c3ccc(O)cc3)CC4=O)O[C@H](CO)[C@@H](O)[C@@H]2O)[C@H](O)[C@H](O)[C@H]1O [naringin] | did not have DPP-IV inhibitory activity; also recorded: no DPP-IV inhibitory effect | –
– | C[C@@H]1O[C@@H](OC[C@H]2O[C@@H](Oc3cc(O)c4c(c3)O[C@H](c3ccc(O)cc3)CC4=O)[C@H](O)[C@@H](O)[C@@H]2O)[C@H](O)[C@H](O)[C@H]1O [narirutin] | did not have DPP-IV inhibitory activity; also recorded: no DPP-IV inhibitory effect | –
– | COc1ccc([C@@H]2CC(=O)c3c(O)cc(O[C@@H]4O[C@H](CO)[C@@H](O)[C@H](O)[C@H]4O[C@@H]4O[C@@H](C)[C@H](O)[C@@H](O)[C@H]4O)cc3O2)cc1O [neohesperidin] | did not have DPP-IV inhibitory activity; also recorded: no DPP-IV inhibitory effect | –
– | O=C(O)c1ccc(O)c(O)c1 [protocatechuic acid] | did not have DPP-IV inhibitory activity | –
– | C[C@@H]1O[C@@H](OC[C@H]2O[C@@H](Oc3c(-c4ccc(O)c(O)c4)oc4cc(O)cc(O)c4c3=O)[C@H](O)[C@@H](O)[C@@H]2O)[C@H](O)[C@H](O)[C@H]1O [rutin, rutin hydrate] | did not have DPP-IV inhibitory activity; also recorded: no DPP-IV inhibitory effect | –

SMILES | IC50 (Porcine kidney DPP-IV [1]; [3]) | DPP-IV inhibitory activity (in words) (Porcine kidney DPP-IV [1]) | further results
O=C(O[C@@H]1Cc2c(O)cc(O)cc2O[C@@H]1c1cc(O)c(O)c(O)c1)c1cc(O)c(O)c(O)c1 [EGCG, epigallocatechin gallate] | 10.2 ± 0.75 µM | – | –
O=C(O)c1cc(O)c(O)c(O)c1 [Gallic acid, gallic acid] | 4.65 ± 0.99 µM | – | –
